Measured values from patent US8883962B2, “Zinc-responsive peptides, and methods of use thereof” (Massachusetts Institute of Technology, priority 2012, dated 2014).
Several values for one entry are separate records, joined by “and”; a condition that tells them apart may be missing. Equal entries are not always repeated. Structures can show the parent of a compound that is named as a salt. The star is where a group is joined. ZP1 = ZinPyr-1 zinc sensor: fluorescein platform with two dipicolylamine metal-binding arms, attached via its 6-CO2H; Palmitoyl = CCCCCCCCCCCCCCCC(=O)*

How the values were obtained:
[1] = 50 mM PIPES buffer (pH 7), 100 mM KCl; read-out: Kd-Zn (known); cited from earlier work
[2] = in 0.1 M H2SO4; cited from earlier work
[3] = Apparent zinc-binding affinity (Kd-Zn) by fluorescence titration in buffered zinc solution; conditions: CaEDTA buffered solution, 25 mM PIPES (pH 7), 50 mM KCl, 50% acetonitrile
Experimental: Apparent zinc-binding affinities (Kd-Zn) were determined by a modified literature procedure. Walkup, G. K.; et al. J. Am. Chem. Soc. 2000, 122, 5644. For each zinc-binding titration, 1 mM EDTA and 2 mM CaCl2 were added to the MeCN/PIPES buffered solution. Palm-ZP1 or ZP1 was added, and the system was allowed to reach equilibrium (30 min). Aliquots of ZnCl2 were successively added, and the emission spectra recorded once the emission spectrum stabilized (˜30 min). The amount of free zinc for a given concentration of total zinc was calculated using the maxchelator program (http://maxchelator.stanford.edu/webmaxc/webmaxcS.htm) based on initial values of 1 mM EDTA, 2 mM CaCl2, an ionic strength of I=0.05 mol dm^−3, and a pH of 7.0. Due to the addition of acetonitrile to the buffered solution, we compared the apparent Kd-Zn for Palm-ZP1 to ZP1 under identical conditions (FIG. 25 and FIG. 29).
Apparent zinc-binding affinities (Kd-Zn) were determined using a modified literature procedure. Fahrni, C. J.; et al. J. Am. […] Aliquots of ZnCl2 were successively added, and the emission spectra recorded once the emission spectrum stabilized (˜30 min). The amount of free zinc for a given concentration of total zinc was calculated using the maxchelator program (http://maxchelator.stanford.edu/webmaxc/webmaxcS.htm) based on initial values of 2 mM EGTA at an ionic strength of I=0.05 mol dm^−3 and a pH of 7.0. […]

HeLa cells [4] = test: Live cell imaging of zinc-induced fluorescence turn-on; format: cell-based
Experimental: To assess the ability of Palm-ZP1 to function within a cellular environment, we conducted live cell imaging experiments. HeLa cells were incubated with a 10 μM solution of Palm-ZP1 in Dulbecco's Modified Eagle Medium (DMEM) for 30 min (37° C., 5% CO2) prior to imaging. Initial cell images had minimal ZP1 emission, consistent with the low quantum yield for the apo form of the sensor. […] Subsequent addition of 100 μM EDTA, a cell-impermeable chelator, attenuated the fluorescent signal to initial levels within 5 min, further confirming that the zinc-induced fluorescence increase occurs extracellularly.
(§1) We carried out live cell imaging experiments to determine whether ZQ-MPP could target mitochondria and report on changes in zinc concentrations. HeLa cells were pretreated with a 25 μM solution of ZQ-MPP, which also contained MitoTracker Red as an internal mitochondria tracker (see later examples). […] The localization of ZQ-MPP was investigated with multichannel fluorescence microscopy. Visually, the distribution of MitoTracker Red (FIG. 19b) and ZQ-MPP (FIG. 19c) appear nearly identical. Overlaying the images (FIG. 19d) and calculating the Pearson's correlation coefficient yields an r=0.71±0.01, indicating strong colocalization.
HeLa cells were cultured at 37° C. under a 5% CO2 humidified atmosphere in Dulbecco's Modified Eagle Medium (High Glucose DMEM, Invitrogen) supplemented with 10% fetal bovine serum (FBS, HyClone), penicillin (100 μg/mL), and streptomycin (100 μg/mL). For live cell imaging, cells were seeded in 35-mm poly-D-Lys coated glass-bottom culture dishes (MatTek Corporation).
Palm-ZP1 (10 μM) was incubated for 30 min at 37° C. and 5% CO2 in DMEM. For multichannel imaging and co-localization studies, staining of the plasma membrane was accomplished by addition of Cell Mask Orange (Life Technologies, final concentration 2.5 μg/mL) for 15-20 min. Prior to imaging, cells were rinsed with warm dye- and serum-free DMEM (2×2 mL) and bathed in warm dye- and serum-free DMEM (2 mL). To assess the zinc responsiveness of Palm-ZP1, stock solutions of ZnCl2 (10 mM) were diluted in warm dye- and serum-free DMEM to a final ZnCl2 concentration of 50 μM. The zinc-enriched media was exchanged in the cell culture dish directly on the microscope stage. […]
(§2) The imaging experiments were performed using a Zeiss Axiovert 200M inverted epifluorescence microscope equipped with an EM-CCD digital camera (Hamamatsu) and a MS200 XY Piezo Z stage (Applied Scientific Instruments). The light source was an X-Cite 120 metal-halide lamp (EXFO) and the fluorescence images were obtained using an oil-immersion objective at 63× magnification. […]

[5] = Photophysical characterization (absorbance, emission, quantum yield) without and with zinc; format: physicochemical; conditions: 25 mM PIPES (pH 7), 50 mM KCl
Experimental: To investigate whether the zinc-sensing properties of the ZP1 moiety withstood the conditions of SPPS, we studied the zinc-binding and photophysical properties of Palm-ZP1 in vitro. Due to the hydrophobic palmitoyl moiety, we used a mixed solvent system consisting of 25 mM PIPES buffer (pH 7) with 50 mM KCl and 50% acetonitrile (v/v). In the absence of zinc, Palm-ZP1 has spectral features that are similar to those of other ZP1 derivatives. Apo Palm-ZP1 has a λabs=518 nm and λem=534 nm (φapo=0.16±0.05) (FIG. 24 and FIG. 29). Addition of ZnCl2 to a solution of Palm-ZP1 produced a characteristic blue-shift in absorption and emission spectra (λabs=505 nm; λem=527 nm) and an enhancement of fluorescence (φZn=0.79±0.05) (FIG. 16a).
ZQ-MPP was prepared manually using standard solid phase methodology. […] In the absence of zinc, ZQ-MPP has two main absorption bands with maxima at λabs=243 and 336 nm (FIG. 26), and is essentially non-emissive (φ≦0.002). Addition of ZnCl2 gives rise to two new features in the absorption spectrum (λabs=264 and 358 nm), and a large increase (>100-fold; φ=0.36±0.01) in fluorescence intensity (λem=484 nm, FIG. 16b, 26, and Table 30).
Spectroscopic measurements for Palm-ZP1 were carried out in a mixed solvent system consisting of 25 mM PIPES buffer (pH 7) with 50 mM KCl and 50% acetonitrile (v/v) (FIG. 24). Except where noted, all fluorescence data were obtained by exciting at 495 nm and observing from 500-650 nm, with 0.1 sec integration time and slit widths of 0.4 mm (1.6 nm). Emission spectra represent the average of three scans. The quantum yield of Palm-ZP1 was referenced to fluorescein in 0.1 M NaOH(aq), which has a known quantum yield of φ=0.95. Lakowicz, J. R. Principles of fluorescence spectroscopy; 2nd ed.; Kluwer Academic/Plenum: New York, 1999.
Characterization of ZQ-MPP (FIG. 26) was performed in 25 mM PIPES buffer (pH 7) with 50 mM KCl, and 50% (v/v) acetonitrile. Zinc affinities (Kd-Zn) were compared to TSQ under identical conditions (FIG. 27 and FIG. 30). Quantum yields for ZQ-MPP and TSQ were reference to quinine sulfate in 0.1 M H2SO4, which has a known quantum yield of (I)=0.58. Eastman, J. W. Photochem. Photobio. 1967, 6, 55.

HeLa cells [6] = test: Localization study in live cells by multichannel fluorescence microscopy (Pearson's correlation coefficient); format: cell-based
Experimental: We next explored whether Palm-ZP1 selective accumulates in the plasma membrane. […] Quantitative image analysis corroborated these findings: Palm-ZP1 and Cell Mask Orange strongly co-localize with a Pearson's correlation coefficient of r=0.70±0.05.
as §1
Palm-ZP1 (10 μM) was incubated for 30 min at 37° C. and 5% CO2 in DMEM. For multichannel imaging and co-localization studies, staining of the plasma membrane was accomplished by addition of Cell Mask Orange (Life Technologies, final concentration 2.5 μg/mL) for 15-20 min. Prior to imaging, cells were rinsed with warm dye- and serum-free DMEM (2×2 mL) and bathed in warm dye- and serum-free DMEM (2 mL). […]
as §2
To calculate r, images were first deconvoluted using a calculated point-spread function (PSF) map based on emission wavelength, refractive index of the media (n=1.518), and the numerical aperture (1.4). Deconvoluted channels (i.e., sensor and organelle trackers) were merged and analyzed. For each image, a minimum of three regions-of-interest (ROI) were selected and the r-value calculated using an ImageJ plugin. […]

O=C1OC2(c3ccccc31)c1cc(Cl)c(O)c(CN(Cc3ccccn3)Cc3ccccn3)c1Oc1c2cc(Cl)c(O)c1CN(Cc1ccccn1)Cc1ccccn1 [ZP1]
Kd [1]: 0.7 nM

C=C[C@H]1C[N@@]2CC[C@H]1C[C@H]2[C@H](O)c1ccnc2ccc(OC)cc12 [quinine sulfate]
known quantum yield (reference standard) [2]: 0.58

Palmitic acid-PPPDDK(ZPI)-CONH2 (Palmitoyl-PPPDDK(ZP1)-NH2; not fully specified) [Palm-ZP1]
Kd-Zn compared with ZP1 [3]: closely approximates the Kd-Zn of ZP1
increase in ZP1 fluorescence intensity at the peripheral membrane (HeLa cells [4]; 10 μM probe, addition of 50 μM ZnCl2, no ionophore): ~1.7 fold
time for fluorescent signal to be attenuated to initial levels (HeLa cells [4]; addition of 100 μM EDTA): ≤ 5 min
quantum yield φ, absence of zinc (apo) ([5]; 50% acetonitrile (v/v)): 0.16±0.05
quantum yield φ, zinc-bound ([5]; 50% acetonitrile (v/v)): 0.79±0.05
λabs after addition of ZnCl2 ([5]; 50% acetonitrile (v/v)): 505 nm
λabs, absence of zinc (apo) ([5]; 50% acetonitrile (v/v)): 518 nm
λem after addition of ZnCl2 ([5]; 50% acetonitrile (v/v)): 527 nm
λem, absence of zinc (apo) ([5]; 50% acetonitrile (v/v)): 534 nm
Pearson's correlation coefficient r with Cell Mask Orange (plasma membrane) (HeLa cells [6]): 0.70±0.05
localization in cells (HeLa cells [6]; multichannel fluorescence microscopy): preferentially localize to the plasma membrane

zinquin-FxrFxrFxr-CONH2 [ZQ-MPP]
increase in ZQ-MPP intensity (HeLa cells [4]; 25 μM probe, addition of 50 μM zinc/pyrithione): ~15 fold
signal after addition of zinc chelator (HeLa cells [4]; addition of 100 μM TPEN): returned to near baseline levels
quantum yield φ, absence of zinc (apo) ([5]; 50% acetonitrile (v/v)): ≤ 0.002
quantum yield φ, zinc-bound ([5]; 50% acetonitrile (v/v)): 0.36±0.01
λabs after addition of ZnCl2 ([5]; 50% acetonitrile (v/v)): 264 nm and 358 nm
λabs, absence of zinc (apo) ([5]; 50% acetonitrile (v/v)): 243 nm and 336 nm
λem after addition of ZnCl2 ([5]; 50% acetonitrile (v/v)): 484 nm
increase in fluorescence intensity upon addition of ZnCl2 ([5]; in vitro, 50% acetonitrile): > 100 fold
Pearson's correlation coefficient r with MitoTracker Red (mitochondria) (HeLa cells [6]): 0.71±0.01
